The nature of the data set: Case report: subject, under treatment for uneasiness, short temper and prolonged anger. In kind it is in vivo, human. The following applies: while taking welbutrin, before the butyrate. The text has this:
A subject was under treatment for uneasiness, short temper and prolonged anger, and was taking welbutrin.

Regarding `CC(NC(C)(C)C)C(=O)c1cccc(Cl)c1` (stereo not shown) [welbutrin, 1-(3-chlorophenyl)-2-[(1,1-dimethylethyl)amino]-1-propanone], the “side effects suffered under prior treatment” value is “stomach discomfort, memory deficiency and reduced clarity of thought”.

(Values after patent publication US6498247B2, “Alkali or alkaline earth metal of n-butyric acid for treatment of cognitive and emotional conditions” (Pro-Health, Inc., priority 2000, dated 2002).)
